Test system: blood lipid peroxides
Test: Blood lipid peroxide levels in serum of beagle dogs after oral dosing for 11 days (Yagi's method, fluorometer)
Details: relative ratio against averaged pre-dosing level (100), oral capsule once daily, pravastatin 2 mg/kg, mean of 5 dogs
From the text: Beagle dogs aged 5 months were purchased from Covance Research Products Inc. and used after 1 month of quarantine and acclimatisation breeding.
The required amounts of pravastatin or each component of the combination drug calculated from the body weight of each dog were weighed and filled in a gelatin capsule purchased from TORPAC Inc. Capsules filled with pravastatin were stocked in a refrigerator and those filled with combination drugs stocked at room temperature until use.
The combination drugs were filled in identical gelatin capsules.
Pravastatin or combination drug capsules were forcibly orally administered to each of the test animals once daily between 9:00 and 12:30. Animals were fasted for 2 or 3 hr prior to administration of the capsules.
The administration period was 11 successive days.
Blood (10 mL) was collected from the superficial radial vein 3 or 4 days prior to administration (−3 or −4 days in the first week prior to capsule administration) and 4 and 8 days after administration of the capsule. Animals were fasted for approximately 18 hr prior to blood collection. Collected blood was placed in a test tube and left at room temperature for 0.5–1 hr and centrifuged (3,000 rpm, for 10 min). The obtained serum was used for assays of blood lipid peroxides according to Yagi's methods.
A fluorometer (Hitachi, Ltd., F3000) was used for assay of the lipid peroxides.
The averaged value in each group was obtained from 5 animals a group.

| SMILES | Blood Lipid Peroxide Levels after administration, 4 days (taurine 1,000 mg/kg) | Blood Lipid Peroxide Levels after administration, 8 days (taurine 1,000 mg/kg) | Blood Lipid Peroxide Levels after administration, 4 days (pantethine 300 mg/kg) | Blood Lipid Peroxide Levels after administration, 8 days (pantethine 300 mg/kg) |
| --- | --- | --- | --- | --- |
| NCCS(=O)(=O)O [Taurine alone, Taurine] | 95.8 | 93.8 |  |  |
| CC[C@H](C)C(=O)O[C@H]1C[C@H](O)C=C2C=C[C@H](C)[C@H](CC[C@@H](O)C[C@@H](O)CC(=O)O)[C@H]21 [Pravastatin alone, (+)-(3R,5R)-3,5-dihydroxy-7-[(1S,2S,6S,8S,8aR)-6-hydroxy-2-methyl-8-[(S)-2-methylbutyryloxy]-1,2,6,7,8,8a-hexahydro-1-naphthyl]heptanoate] | 110.8 | 116.2 | 110.8 | 116.2 |

Reference: patent US6998422B2, “Lipid peroxide-lowering compositions” (Sankyo Company, Limited, priority 2000, dated 2006)
